From US20160067162A1, “PHOTOPROTECTIVE COMPOUNDS, COMPOSITIONS INCLUDING SAME AND USES THEREOF” (UNIVERSITE DE RENNES 1, priority 2013, published 2016)

Assays:
Format in all cases: physicochemical
[1] = UV spectrum measurement in CHCl3 (λmax, molar extinction coefficient)
Protocol: The products are diluted in CHCl3 so as to obtain a solution at 10^−4M. The UV spectra are measured using a Uvikon 931 UV-vis spectrophotometer, Serlabo Technologies, Entraigues sur la Sorgue, France. This UV spectrum makes it possible to determine the molar extinction coefficient (mol^−1 L cm^−1) at the λmax by virtue of the Beer-Lambert law: c=A/l×C;
A=value of the absorbance at the λmax; l=length of the cuvette in cm (l=1);
C=concentration of the solution=1×10^−4 mol/l. The theoretical λmax was determined for certain products by DFT calculation.

[2] = SPF measurement, Protocol I (Rennes): simplified O/W emulsion, UV spectrum 200-400 nm
Protocol: The SPF measurement is carried out according to the following protocol described in Le Dévéhat F., Malargé A., Couteau C., Coiffard L., Legouin B. “Evaluation of a new UV-filter screening method”, 4th symposium of the AFERP “Biodiversity, chimie des substances naturelles et medicaments” [“Biodiversity, chemistry of natural substances and medicaments”] and 3rd Franco-Pakistani symposium, Besançon (France), Jul. 16-17-18, 2010. A solution of each product dissolved in dimethyl sulfoxide is incorporated at 10% into a simplified emulsion of oil-in-water (O/W) type consisting of liquid paraffin, water and SDS at 10%, the whole mixture taken up in absolute ethanol. The UV spectrum of each solution is recorded between 200 nm and 400 nm in a 10 mm quartz cell on a Uvikon 931 UV-vis spectrophotometer and measured in comparison with a control 10% emulsion solution.
(§1) The SPF and UVA-PF values are, for the two protocols, calculated from the following equations: […]
(§2) where Eλ is the erythemogenic effect of the radiation at the wavelength λ; Sλ is the spectral solar irradiance at the wavelength λ and Tλ is the spectral transmittance of the product at the wavelength λ, λc is the critical wavelength which corresponds to the wavelength at which 90% of the area under the curve (AUC) is integrated between 290 and 400 nm. The UVA/UVB ratio corresponds more specifically to the ratio of the area under the curve between 315 and 400 nm to the area under the curve between 280 and 315 nm.

[3] = SPF measurement, Protocol II (Nantes): O/W emulsion on PMMA plate, transmission with integrating sphere
Protocol: The SPF measurement is carried out according to the protocol described in Lohézic-Le Dévéhat F., Legouin B., Couteau C., Boustie J., Coiffard L. “Lichenic extracts and metabolites as UV filters” Journal of Photochemistry and Photobiology B: Biology 120 (2013) 17-28:
An emulsion having the following formulation is used: […]
The two phases are prepared separately. The hydrophilic phase is then added, with stirring, to the lipophilic phase. The products are finally incorporated at 1% into this O/W emulsion. 30 mg of the whole mixture are distributed over the entire surface area (25 cm^2) of a PMMA plate using a finger store. After spreading, 15 mg remain on the finger store. Three plates are prepared per product and nine measurements are carried out. The transmission measurements between 290 and 400 nm for the SPF and between 320 and 400 nm for the UVA-PF are carried out using a spectrophotometer equipped with an integrating sphere (UV Transmittance analyzer UV1000S, Labsphere, North Sutton, US).
as §1, §2

With O=C1C=C(c2ccc(F)cc2)NCC1 [Compound 2, 6-(4-fluorophenyl)-2,3-dihydropyridin-4(1H)-one] the λmax exp ([1]; 10^−4 M in CHCl3) was 326 nm, the “ε (molar extinction coefficient at the λmax)” value ([1]; 10^−4 M in CHCl3, 1 cm cuvette) was 10924 L/mol/cm and the “λc p.I” value ([2]; critical wavelength, protocol I) was 361 nm. The “Colipa UVA-PF p.I, at 10%” value ([2]; protocol I, product at 10%) was 5.85 ± 0.16, the “SPF p.I, at 10%” value ([2]; protocol I, product at 10% in simplified O/W emulsion) was 4.30 ± 0.12 and the UVA/UVB ([2]; ratio of area under the curve 315-400 nm to 280-315 nm) was 3.08 ± 0.00. For the same compound, the “λc (p.II)” value ([3]; critical wavelength) was 383 nm, the “SPF (p.II, at 1%)” value ([3]; product at 1% in O/W emulsion, PMMA plate, 290-400 nm) was 1.81 ± 0.11 and the “Colipa UVA-PF (p.II, at 1%)” value ([3]; product at 1%, 320-400 nm) was 1.95 ± 0.12.
